As usually defined, the EC50 is the concentration at which the effect is half-maximal.

Active and inactive are the calls of the source. The calls are words filed in the database; no cut-off is given here.

This note sets out measurements from ChEMBL document CHEMBL4184249, “Structural development of tetrachlorophthalimides as liver X receptor β (LXRβ)-selective agonists with improved aqueous solubility” (Bioorg Med Chem Lett, 2018).

For assay [1], the target named is T1, Retinoic acid receptor beta (Homo sapiens) (UniProt P10826).
T1 sequence (whole entry): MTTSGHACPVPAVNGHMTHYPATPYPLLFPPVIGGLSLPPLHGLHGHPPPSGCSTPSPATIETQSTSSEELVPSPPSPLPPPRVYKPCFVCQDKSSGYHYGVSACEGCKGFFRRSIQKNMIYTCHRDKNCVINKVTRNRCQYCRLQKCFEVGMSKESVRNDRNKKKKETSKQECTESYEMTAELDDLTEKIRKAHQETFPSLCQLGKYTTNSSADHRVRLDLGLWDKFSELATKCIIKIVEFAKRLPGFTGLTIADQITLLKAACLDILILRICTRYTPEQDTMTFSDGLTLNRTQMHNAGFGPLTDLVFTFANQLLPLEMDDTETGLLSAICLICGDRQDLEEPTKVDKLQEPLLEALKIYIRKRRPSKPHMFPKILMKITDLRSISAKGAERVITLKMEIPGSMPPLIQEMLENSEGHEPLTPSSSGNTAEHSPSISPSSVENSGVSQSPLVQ
As to the kind of experiment: Agonist activity at GAL4-tagged RARbeta (unknown origin) expressed in HEK293 cells co-expressing CMX-beta-galactosidase at 0.3 to 30 uM incubated for 16 hrs by luciferase reporter gene assay. It counts as cell-based. On the technique in general: A reporter such as luciferase makes a cellular process visible.

The target of assay [2] is Oxysterols receptor LXR-beta (Homo sapiens, UniProt P55055). As to the kind of experiment: Agonist activity at LXRbeta ligand-binding domain (unknown origin) incubated for 1.5 hrs using fluorescein-labeled coactivator peptide by TR-FRET competitive binding assay. On the technique in general: In TR-FRET formats the signal depends on donor and acceptor labels being close together.

Assay [3] concerns the target T2, Oxysterols receptor LXR-beta (Homo sapiens) (UniProt P55055).
T2 sequence (whole entry): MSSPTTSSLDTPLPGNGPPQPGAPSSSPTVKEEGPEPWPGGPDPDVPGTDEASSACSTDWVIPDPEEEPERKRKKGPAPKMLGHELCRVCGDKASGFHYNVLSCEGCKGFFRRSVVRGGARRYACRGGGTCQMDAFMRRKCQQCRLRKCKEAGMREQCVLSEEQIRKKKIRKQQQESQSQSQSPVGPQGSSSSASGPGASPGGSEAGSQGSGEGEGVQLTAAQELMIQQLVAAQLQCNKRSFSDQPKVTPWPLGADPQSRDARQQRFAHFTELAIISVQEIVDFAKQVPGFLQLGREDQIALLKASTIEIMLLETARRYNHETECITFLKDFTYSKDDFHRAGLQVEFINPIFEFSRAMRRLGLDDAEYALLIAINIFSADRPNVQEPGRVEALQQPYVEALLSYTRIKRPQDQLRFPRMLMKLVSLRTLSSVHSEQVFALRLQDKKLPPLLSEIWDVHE
As to the kind of experiment: Agonist activity at LXRbeta in human THP1 cells assessed as increase in ABCA1 mRNA expression at 1 uM by real-time quantitative RT-PCR method. It counts as cell-based.

Assay [4] deals with T3, Oxysterols receptor LXR-beta (Mus musculus) (UniProt Q60644).
T3 sequence (whole entry): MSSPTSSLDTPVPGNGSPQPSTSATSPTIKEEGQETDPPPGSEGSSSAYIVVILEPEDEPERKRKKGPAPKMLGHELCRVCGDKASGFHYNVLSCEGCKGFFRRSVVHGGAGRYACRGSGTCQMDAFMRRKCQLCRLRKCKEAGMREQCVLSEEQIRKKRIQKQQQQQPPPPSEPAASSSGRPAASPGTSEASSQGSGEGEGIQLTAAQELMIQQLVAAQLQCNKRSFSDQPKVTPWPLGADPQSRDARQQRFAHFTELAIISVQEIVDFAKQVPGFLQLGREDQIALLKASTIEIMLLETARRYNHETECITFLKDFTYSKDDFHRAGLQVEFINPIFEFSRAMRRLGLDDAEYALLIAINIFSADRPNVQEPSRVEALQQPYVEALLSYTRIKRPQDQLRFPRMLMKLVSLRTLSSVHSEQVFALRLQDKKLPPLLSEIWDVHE
The assay can be described thus: Agonist activity at mouse LXRbeta expressed in HEK293 cells co-expressing CMX-beta-galactosidase incubated for 16 hrs by luciferase reporter gene assay relative to T0901317. It counts as cell-based.

Assay [5] has as its target T4, Oxysterols receptor LXR-beta (Homo sapiens, UniProt P55055).
T4 sequence (P55055 whole entry): T2 sequence (whole entry)
The assay can be described thus: Agonist activity at human LXRbeta expressed in HEK293 cells co-expressing CMX-beta-galactosidase incubated for 16 hrs by luciferase reporter gene assay. It counts as cell-based.

The target in assay [6] is T5, Peroxisome proliferator-activated receptor alpha (Homo sapiens) (UniProt Q07869).
T5 sequence (whole entry): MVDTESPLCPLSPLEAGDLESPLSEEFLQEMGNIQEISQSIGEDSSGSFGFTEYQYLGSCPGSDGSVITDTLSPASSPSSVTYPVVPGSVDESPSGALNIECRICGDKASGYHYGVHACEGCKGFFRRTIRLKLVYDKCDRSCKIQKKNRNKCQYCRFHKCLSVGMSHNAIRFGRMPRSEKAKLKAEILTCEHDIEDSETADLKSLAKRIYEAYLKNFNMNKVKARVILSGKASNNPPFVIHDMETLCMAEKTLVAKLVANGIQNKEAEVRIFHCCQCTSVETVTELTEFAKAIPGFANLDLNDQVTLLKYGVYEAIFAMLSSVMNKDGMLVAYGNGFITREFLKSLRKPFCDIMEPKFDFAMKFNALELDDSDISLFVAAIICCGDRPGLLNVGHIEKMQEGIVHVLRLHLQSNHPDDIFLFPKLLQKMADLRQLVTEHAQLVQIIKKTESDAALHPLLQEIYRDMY
As to the kind of experiment: Agonist activity at GAL4-tagged PPARalpha (unknown origin) expressed in HEK293 cells co-expressing CMX-beta-galactosidase at 0.3 to 30 uM incubated for 16 hrs by luciferase reporter gene assay. It counts as cell-based.

Assay [7] has as its target T6, Retinoic acid receptor gamma (Homo sapiens) (UniProt P13631).
T6 sequence (whole entry): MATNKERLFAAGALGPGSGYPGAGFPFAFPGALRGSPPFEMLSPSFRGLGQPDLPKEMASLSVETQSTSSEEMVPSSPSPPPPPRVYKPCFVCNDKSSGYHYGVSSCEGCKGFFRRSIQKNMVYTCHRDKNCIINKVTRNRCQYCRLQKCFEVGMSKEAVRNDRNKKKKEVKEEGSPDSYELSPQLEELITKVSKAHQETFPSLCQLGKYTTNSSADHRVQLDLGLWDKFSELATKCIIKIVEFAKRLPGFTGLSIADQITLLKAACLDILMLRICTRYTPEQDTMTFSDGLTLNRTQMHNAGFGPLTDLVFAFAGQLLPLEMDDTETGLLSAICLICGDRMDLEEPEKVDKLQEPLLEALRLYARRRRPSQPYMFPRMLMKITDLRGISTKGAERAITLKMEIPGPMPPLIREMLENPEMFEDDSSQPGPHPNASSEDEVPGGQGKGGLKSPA
The assay can be described thus: Agonist activity at GAL4-tagged RARgamma (unknown origin) expressed in HEK293 cells co-expressing CMX-beta-galactosidase at 0.3 to 30 uM incubated for 16 hrs by luciferase reporter gene assay. It counts as cell-based.

As to `O=C1c2c(Cl)c(Cl)c(Cl)c(Cl)c2C(=O)N1c1ccccc1/C=C/c1cccs1`, the result in assay [1], in assay [6] and in assay [7] was inactive. Besides, the Activity result in assay [2] was “Dose-dependent effect”. In assay [3], the result was Active. The Efficacy in assay [4] was determined as 24%. The midpoint of the response in assay [5], the EC50, lay at 0.559 µM.
